# Measurements published in ChEMBL document CHEMBL4699427, “A3- and A2B-fluorocorroles: synthesis, X-ray characterization and antiviral activity evaluation against human cytomegalovirus infection” (RSC Med Chem, 2020).
# Calls of active or inactive are those of the source. The rule behind the calls is not given here.
# Columns and labels:
# [1] = Cytotoxicity against human MRC5 cells assessed as reduction in cell viability incubated for 6 days by Hoechst 33342 staining based microscopic analysis; details: time 6 day
# [2] = Cytotoxicity against human ARPE-19 cells assessed as reduction in cell viability incubated for 6 days by Hoechst 33342 staining based microscopic analysis; details: time 6 day
# Human betaherpesvirus 5 [3] = assay: Antiviral activity against Human Cytomegalovirus infected in human MRC5 cells assessed as reduction in infection rate incubated for 6 days by Hoechst 33342 staining based microscopic analysis; type: functional, cell-based
# Human betaherpesvirus 5 [4] = assay: Antiviral activity against human Cytomegalovirus infected in human ARPE-19 cells assessed as reduction in infection rate incubated for 6 days by Hoechst 33342 staining based microscopic analysis; type: functional, cell-based
# Human betaherpesvirus 5 [5] = assay: Antiviral activity against human Cytomegalovirus infected in human ARPE-19 cells assessed as reduction in infection rate incubated for 10 days by Hoechst 33342 staining based microscopic analysis; type: functional, cell-based
# [6] = Drug uptake in rabbit RK13 cells incubated for 24 hrs by Hoechst staining based microscopic analysis; type: ADME, cell-based, Oryctolagus cuniculus; details: rk13, 24 h
# [7] = Selectivity index, ratio of CC50 for human MRC5 cells to IC50 for human Cytomegalovirus infected in human MRC5 cells incubated for 6 days; type: toxicity, cell-based; details: time 6 day, read-out: Ratio CC50/IC50
# [8] = Selectivity index, ratio of CC50 for human MRC5 cells to IC50 for human Cytomegalovirus infected in human ARPE-19 cells incubated for 10 days; type: toxicity, cell-based; details: time 6 day, read-out: Ratio CC50/IC50
# Human betaherpesvirus 5 [9] = assay: Antiviral activity against human Cytomegalovirus infected in human ARPE-19 cells assessed as reduction in infection rate incubated for 12 days by Hoechst 33342 staining based microscopic analysis; type: functional, cell-based; details: Human betaherpesvirus 5, ARPE-19, 288 h
# [10] = Selectivity index, ratio of CC50 for human MRC5 cells to IC50 for human Cytomegalovirus infected in human ARPE-19 cells incubated for 12 days; type: toxicity, cell-based; details: time 6 day, read-out: Ratio CC50/IC50
# Human betaherpesvirus 5 [11] = assay: Antiviral activity against human Cytomegalovirus infected in human MRC5 cells assessed as reduction in viral replication incubated for 6 days by Hoechst 33342 staining based microscopic analysis; type: functional, cell-based; details: Human betaherpesvirus 5, MRC5, 144 h
# Human betaherpesvirus 5 [12] = assay: Antiviral activity against human Cytomegalovirus infected in human ARPE-19 cells assessed as reduction in viral replication incubated for 13 days by Hoechst 33342 staining based microscopic analysis; type: functional, cell-based; details: Human betaherpesvirus 5, ARPE-19, 312 h
# [13] = Selectivity index, ratio of CC50 for human MRC5 cells to IC50 for human Cytomegalovirus infected in human ARPE-19 cells incubated for 13 days; type: toxicity, cell-based; details: time 6 day, read-out: Ratio CC50/IC50
# Human betaherpesvirus 5 [14] = assay: Antiviral activity against human Cytomegalovirus harboring ANCHOR infected in human MRC5 cells assessed as reduction in infection rate at 2.5 to 5 uM incubated for 6 days by Hoechst 33342 staining based microscopic analysis; type: functional, cell-based; details: dose microM 2.5-5, time 6.0 day
# Human betaherpesvirus 5 [15] = assay: Antiviral activity against human Cytomegalovirus harboring ANCHOR infected in human ARPE-19 cells assessed as reduction in infection rate at 1.25 to 2.5 uM incubated for 10 days by Hoechst 33342 staining based microscopic analysis; type: functional, cell-based; details: dose microM 1.25-2.5, time 10.0 day
# Human betaherpesvirus 5 [16] = assay: Antiviral activity against human Cytomegalovirus harboring ANCHOR infected in human MRC5 cells assessed as reduction in infection rate at 0.15 to 0.625 uM incubated for 6 days by Hoechst 33342 staining based microscopic analysis relative to control; type: functional, cell-based; details: dose microM 0.625-0.15, time 6.0 day
# Human betaherpesvirus 5 [17] = assay: Antiviral activity against human Cytomegalovirus harboring ANCHOR infected in ARPE-19 cells assessed as reduction in replication by measuring UL44 expression at 0.6 to 0.15 uM by immunofluorescence B31assay; type: functional, cell-based; details: dose microM 0.625-0.15, time 10.0 day
# [18] = Human betaherpesvirus 5, MRC5, 144 h, read-out: IC50
# [19] = Human betaherpesvirus 5, ARPE-19, 240 h, read-out: IC50
# [20] = Human betaherpesvirus 5, ARPE-19, 144 h, read-out: IC50
Compound,IC50 (Human betaherpesvirus 5 [4]; arpe-19),CC50 at 144 h [1] [µM],CC50 at 144 h [2] [µM],IC50 (Human betaherpesvirus 5 [3]; mrc5),IC50 (Human betaherpesvirus 5 [3]; [18]) [µM],selectivity ratio at 144 h [7],also measured
Fc1cc(F)cc(-c2c3nc(c4ccc([nH]4)c(-c4cc(F)cc(F)c4)c4ccc([nH]4)c(-c4cc(F)cc(F)c4)c4ccc2[nH]4)C=C3)c1,Not Active,> 50,> 50,Not Active,–,–,–
COc1ccc(F)c(-c2c3nc(c4ccc([nH]4)c(-c4cc(OC)ccc4F)c4ccc([nH]4)c(-c4cc(OC)ccc4F)c4ccc2[nH]4)C=C3)c1,Not Active,> 50,> 50,Not Active,–,–,–
Fc1cc(F)c(F)c(-c2c3ccc([nH]3)c(-c3c(F)c(F)cc(F)c3F)c3nc(c4ccc([nH]4)c(-c4c(F)c(F)cc(F)c4F)c4ccc2[nH]4)C=C3)c1,–,21.5,–,–,1.16,18.5,IC50 (Human betaherpesvirus 5 [5]; [19]): 0.5 µM; Drug uptake [6]: Active; selectivity ratio at 144 h [8]: 62
Fc1cc(F)c(F)c(-c2c3ccc([nH]3)c(-c3c(F)c(F)c(F)c(F)c3F)c3nc(c4ccc([nH]4)c(-c4c(F)c(F)c(F)c(F)c4F)c4ccc2[nH]4)C=C3)c1F,–,3.03,–,–,0.31,9.77,IC50 (Human betaherpesvirus 5 [5]; [19]): 0.31 µM; selectivity ratio at 144 h [8]: 151
CN(C)c1c(F)c(F)c(-c2c3ccc([nH]3)c(-c3c(F)c(F)cc(F)c3F)c3nc(c4ccc([nH]4)c(-c4c(F)c(F)cc(F)c4F)c4ccc2[nH]4)C=C3)c(F)c1F,–,> 50,–,–,2.11,> 23.6,IC50 (Human betaherpesvirus 5 [5]; arpe-19): Not Active
Fc1cc(F)c(F)c(-c2c3nc(c4ccc([nH]4)c(-c4c(F)c(F)cc(F)c4F)c4ccc([nH]4)c(-c4cccnc4)c4ccc2[nH]4)C=C3)c1F,–,12.8,–,–,1.1,11.6,–
O=[N+]([O-])c1ccc(-c2c3ccc([nH]3)c(-c3c(F)c(F)cc(F)c3F)c3nc(c4ccc([nH]4)c(-c4c(F)c(F)cc(F)c4F)c4ccc2[nH]4)C=C3)c(C(F)(F)F)c1,–,11,–,–,2.45,4.49,IC50 (Human betaherpesvirus 5 [5]; [19]): 0.33 µM; selectivity ratio at 144 h [8]: 18.6
O=S(=O)(O)CCNc1c(F)c(F)c(-c2c3nc(c4ccc([nH]4)c(-c4c(F)c(F)c(NCCS(=O)(=O)O)c(F)c4F)c4ccc([nH]4)c(-c4c(F)c(F)c(NCCS(=O)(=O)O)c(F)c4F)c4ccc2[nH]4)C=C3)c(F)c1F,Not Active,> 50,> 50,Not Active,–,–,–
Fc1cc(-c2c3nc(c4ccc([nH]4)c(-c4cc(F)c(F)c(F)c4F)c4ccc([nH]4)c(-c4cc(F)c(F)c(F)c4F)c4ccc2[nH]4)C=C3)c(F)c(F)c1F,–,> 50,–,–,6.42,> 7,IC50 (Human betaherpesvirus 5 [9]): 3.71 µM; selectivity ratio at 144 h [10]: > 13
CN(C)c1c(F)c(F)c(-c2c3nc(c4ccc([nH]4)c(-c4c(F)c(F)c(N(C)C)c(F)c4F)c4ccc([nH]4)c(-c4c(F)c(F)cc(F)c4F)c4ccc2[nH]4)C=C3)c(F)c1F,–,> 50,–,–,1.91,> 26.2,IC50 (Human betaherpesvirus 5 [5]; [19]): 1.88 µM; selectivity ratio at 144 h [8]: 26.6
O=[N+]([O-])c1cc(F)cc(-c2c3ccc([nH]3)c(-c3c(F)c(F)cc(F)c3F)c3nc(c4ccc([nH]4)c(-c4c(F)c(F)cc(F)c4F)c4ccc2[nH]4)C=C3)c1,–,50,–,Not Active,–,–,–
O=[N+]([O-])c1ccc(-c2c3ccc([nH]3)c(-c3c(F)c(F)cc(F)c3F)c3nc(c4ccc([nH]4)c(-c4c(F)c(F)cc(F)c4F)c4ccc2[nH]4)C=C3)s1,–,4.17,–,–,0.27,15.6,IC50 (Human betaherpesvirus 5 [12]): 0.13 µM; selectivity ratio at 144 h [13]: 385
Fc1ccccc1-c1c2nc(c3ccc([nH]3)c(-c3ccccc3F)c3ccc([nH]3)c(-c3ccccc3F)c3ccc1[nH]3)C=C2,Not Active,> 50,> 50,Not Active,–,–,–
Fc1cc(-c2c3nc(c4ccc([nH]4)c(-c4ccnc(F)c4)c4ccc([nH]4)c(-c4ccnc(F)c4)c4ccc2[nH]4)C=C3)ccn1,–,6.25,6.17,–,0.46,13,IC50 (Human betaherpesvirus 5 [4]; [20]): 0.15 µM
Fc1cc(F)c(F)c(-c2c3nc(c4ccc([nH]4)c(-c4cc(F)cc(F)c4F)c4ccc([nH]4)c(-c4cc(F)cc(F)c4F)c4ccc2[nH]4)C=C3)c1,–,> 50,> 50,–,6,> 7,IC50 (Human betaherpesvirus 5 [4]; [20]): 3.8 µM; Activity (Human betaherpesvirus 5 [14]): inactive; Activity (Human betaherpesvirus 5 [15]): inactive; Drug uptake [6]: Active
Cc1ccc(F)c(-c2c3nc(c4ccc([nH]4)c(-c4cc(C)ccc4F)c4ccc([nH]4)c(-c4cc(C)ccc4F)c4ccc2[nH]4)C=C3)c1,Not Active,> 50,> 50,Not Active,–,–,–
O=[N+]([O-])c1cc(F)cc(-c2c3nc(c4ccc([nH]4)c(-c4cc(F)cc([N+](=O)[O-])c4)c4ccc([nH]4)c(-c4c(F)c(F)cc(F)c4F)c4ccc2[nH]4)C=C3)c1,–,36.7,–,Not Active,–,–,–
Fc1cc(F)c(F)c(-c2c3nc(c4ccc([nH]4)c(-c4c(F)c(F)cc(F)c4F)c4ccc([nH]4)c(-c4c(F)c(F)nc(F)c4F)c4ccc2[nH]4)C=C3)c1F,–,3.4,–,–,0.09,37.8,IC50 (Human betaherpesvirus 5 [5]; [19]): 0.05 µM; Activity (Human betaherpesvirus 5 [16]): Active; Activity (Human betaherpesvirus 5 [17]): Active; selectivity ratio at 144 h [8]: 450
Fc1cc(-c2c3ccc([nH]3)c(-c3c(F)c(F)cc(F)c3F)c3nc(c4ccc([nH]4)c(-c4c(F)c(F)cc(F)c4F)c4ccc2[nH]4)C=C3)ccn1,–,0.65,–,–,0.06,10.8,IC50 (Human betaherpesvirus 5 [5]; [19]): 0.05 µM; selectivity ratio at 144 h [8]: 114
Fc1cc(F)c(F)c(-c2c3nc(c4ccc([nH]4)c(-c4c(F)c(F)cc(F)c4F)c4ccc([nH]4)c(-c4ccccc4)c4ccc2[nH]4)C=C3)c1F,–,22.3,–,–,6.6,3.38,–

# Continued, in another order:
IC50 (Human betaherpesvirus 5 [4]; arpe-19),Compound,CC50 at 144 h [1] [µM],CC50 at 144 h [2] [µM],IC50 (Human betaherpesvirus 5 [3]; mrc5),IC50 (Human betaherpesvirus 5 [3]; [18]) [µM],selectivity ratio at 144 h [7],also measured
Not Active,Fc1ccc(F)c(-c2c3nc(c4ccc([nH]4)c(-c4cc(F)ccc4F)c4ccc([nH]4)c(-c4cc(F)ccc4F)c4ccc2[nH]4)C=C3)c1,> 50,> 50,Not Active,–,–,–
Not Active,Fc1cc(-c2c3nc(c4ccc([nH]4)c(-c4cc(F)c(F)c(F)c4)c4ccc([nH]4)c(-c4cc(F)c(F)c(F)c4)c4ccc2[nH]4)C=C3)cc(F)c1F,> 50,> 50,–,6.3,> 7,–
Not Active,Fc1cc(F)c(-c2c3nc(c4ccc([nH]4)c(-c4c(F)cc(F)cc4F)c4ccc([nH]4)c(-c4c(F)cc(F)cc4F)c4ccc2[nH]4)C=C3)c(F)c1,> 50,> 50,–,–,> 9,IC50 (Human betaherpesvirus 5 [11]): 5.57 µM
